This note sets out measurements from patent US20100048503A1, “COMPOSITION FOR TREATMENT OF PANCREATIC CANCER” (Eisai R & D Management Co., Ltd., priority 2007, published 2010).

Counter-ions that a name gives are not always drawn.

The test system of assay [1] is Human pancreatic cancer cell line AsPC-1. Nature of the assay: Combination use with gemcitabine hydrochloride in subcutaneous transplanted (xenograft) model in nude mouse. The note with it: AsPC-1 xenograft; for Relative tumor volume on Day 29 Average ± standard deviation: nude mouse. Type of assay: in vivo. Here is the method: Human pancreatic cancer cell line AsPC-1 (purchased from ATCC) was cultured in RPMI1640 (containing 10% FBS) in a 5% carbon dioxide gas incubator at 37° C. to about 80% confluence, and then the cells were collected with trypsin-EDTA. A 5×10^7 cells/mL suspension was prepared with a phosphate buffer, and each 0.1 mL of the resulting cell suspension was subcutaneously transplanted to a nude mouse at the side of its body. Eleven days after the transplantation, 4-(3-chloro-4-(cyclopropylaminocarbonyl)aminophenoxy)-7-methoxy-6-quinolinecarboxamide (3, 10 or 30 mg/kg, once a day for four weeks, oral) and gemcitabine hydrochloride (purchased from Eli Lilly Japan) (200 mg/kg, four times every three days, intravenous) were administered alone or in combination. The major and minor axes of tumors were measured with Digimatic caliper (Mitsutoyo Corporation), and tumor volumes and relative tumor volumes were calculated according to the following formulae: […] Relative Tumor Volume (RTV)=Tumor volume on measurement day/Tumor volume on the first administration day. […] The first day of administration was considered Day 1.

Assay [2] shares this test system. The assay is described as follows: Combination use with erlotinib hydrochloride in subcutaneous transplanted (xenograft) model in nude mouse. It is filed as in vivo. Conditions: oral, AsPC-1 xenograft; for Relative tumor volume on Day 29 Average ± standard deviation: once a day for four weeks, nude mouse. The method, then: Human pancreatic cancer cell line AsPC-1 (purchased from ATCC) was cultured in RPMI1640 (containing 10% FBS) in a 5% carbon dioxide gas incubator at 37° C. to about 80% confluence, and then the cells were collected with trypsin-EDTA. A 5×10^7 cells/mL suspension was prepared with a phosphate buffer, and each 0.11 mL of the resulting cell suspension was subcutaneously transplanted to a nude mouse at the side of its body. Ten days after the transplantation, 4-(3-chloro-4-(cyclopropylaminocarbonyl)aminophenoxy)-7-methoxy-6-quinolinecarboxamide (10 mg/kg, once a day for four weeks) and erlotinib hydrochloride (50 mg/kg, once a day for four weeks) were orally administered alone or in combination. The major and minor axes of tumors were measured with Digimatic caliper (Mitsutoyo Corporation), and tumor volumes and relative tumor volumes were calculated according to the following formulae: […] Relative Tumor Volume (RTV)=Tumor volume on measurement day/Tumor volume on the first administration day. […] The first day of administration was considered Day 1.

[3] abbreviates: Compound A 3, 10 or 30 mg/kg oral in combination with gemcitabine hydrochloride 200 mg/kg intravenous.
Setting [4] is: Compound A 10 mg/kg in combination with erlotinib hydrochloride 50 mg/kg.

For `Nc1ccn([C@@H]2O[C@H](CO)C(O)C2(F)F)c(=O)n1` (single isomer, unassigned; (+)) [Gemcitabine hydrochloride, (+)-2′-deoxy-2′,2′-difluorocytidene, reference compound], the “Relative tumor volume on Day 29 Average ± standard deviation” value in assay [1] (Gemcitabine hydrochloride 200 mg/kg alone, four times every three days, intravenous) is recorded as 3.41 ± 0.41.

Regarding `COc1cc2nccc(Oc3ccc(NC(=O)NC4CC4)c(Cl)c3)c2cc1C(N)=O` [Compound A, 4-(3-chloro-4-(cyclopropylaminocarbonyl)aminophenoxy)-7-methoxy-6-quinolinecarboxamide], the “Relative tumor volume on Day 29 Average ± standard deviation” value in assay [1] (Compound A 3 mg/kg alone, once a day for four weeks, oral) came to 2.10 ± 0.64; in assay [1] (Compound A 10 mg/kg alone, once a day for four weeks, oral), 1.79 ± 0.56; in assay [1] (Compound A 30 mg/kg alone, once a day for four weeks, oral), 0.88 ± 0.27; in assay [2] (Compound A 10 mg/kg alone), 1.84 ± 1.31. For the same molecule, the “Anti-tumor effect of combination use compared with either agent alone” value in assay [1] (setting [3]) and in assay [2] (setting [4]) was “superior anti-tumor effect” in each case. In addition, the “Effect when used in combination with gemcitabine hydrochloride” value in assay [1] (setting [3]) was “additive effect”. Moreover, in assay [2] (setting [4]), the “Effect when used in combination with erlotinib hydrochloride” value is “additive effect”.

Regarding `C#Cc1cccc(Nc2ncnc3cc(OCCOC)c(OCCOC)cc23)c1` [Erlotinib hydrochloride, 4-(3-ethynylphenylamino)-6,7-bis(2-methoxyethoxy)-quinazoline, reference compound], in assay [2] (Erlotinib hydrochloride 50 mg/kg alone), the “Relative tumor volume on Day 29 Average ± standard deviation” value was found to be 4.54 ± 0.18.
